Like-named read-outs stand apart in the source and are kept apart here. Marks after values point to notes of the source that are not given here.
Assays:
[1] = test system: Male Sprague-Dawley SPF rats; conditions: mean±SEM
Protocol: Two groups of laboratory rats were used to perform two separate experiments (Experiments 1 and 2). Male Sprague-Dawley SPF rats (Charles River Laboratories, Wilmington, Ma.) weighing between 175-200 grams were used for each study. Rats were housed two per cage in a controlled-temperature (20-22° Celsius) room where they were exposed to a 12-hour light/dark cycle. Both groups of animals received food and either water or ethanol ad lib. Body weights were recorded on a weekly basis and fluid consumption was monitored in all groups for the duration of the study. The study was approved by the Louisiana State University Medical Center Institutional Animal Care and Use Committee.
(§1) Rats in the diabetic group were injected with streptozotocin (45 mg/kg) prepared in a 0.02 M sodium citrate solution (pH 4.5) via a tail vein to induce diabetes mellitus. Rats assigned to all other groups were injected with a similar volume of sodium citrate solution. Glycosylated hemoglobin (total) was measured in tail-vein blood in all rats within two days of echocardiographic examination using a commercially available kit (Sigma Chemical Co, St. Louis, Mo.).
(§2) Twenty-five rats were used in this experiment with five animals in each group.
All animals were anesthetized with a solution of ketamine-xylazine (50-mg/kg ketamine, 4-mg/kg xylazine, intraperitoneal) and the thoracic and upper abdominal areas shaved prior to echocardiography. The rats were positioned on a table for M-mode and two-dimensional echocardiograms. Studies were performed with a Toshiba Model 380 Echocardiography instrument (Toshiba America Medical Systems, Tustin, Calif.) using a 10 MHZ transducer calibrated with phantoms prior to use. Lateral resolution less than 0.20 mm within the ROI is achieved at the imaging depths used.

[2] = test system: Male Sprague-Dawley SPF rats; conditions: 10-week rats
Protocol: In Experiment 2 (10-week), cardiac and renal tissues were harvested, rinsed in ice-cold physiologic saline, and then placed in 10% (v/v) formaldehyde solution in aqueous phosphate buffer (pH 7.4) (Mallinckrodt Inc., St. Louis, Mo.). Pancreatic tissue was harvested and fixed in buffered zinc-formaldehyde. Microscopic analysis were performed on H&E stained tissue slices.
Tissues from 10-week rats were analyzed using H&E staining. […] The degree of infiltration was evaluated qualitatively as none, few (1-4 cells per field), or marked infiltration.

[3] = mean±SEM; for Body weights at the time of echocardiographic examination: Experiment 1; for Body weights: Experiment 2, 10-weeks
Protocol: Two groups of laboratory rats were used to perform two separate experiments (Experiments 1 and 2). Male Sprague-Dawley SPF rats (Charles River Laboratories, Wilmington, Ma.) weighing between 175-200 grams were used for each study. Rats were housed two per cage in a controlled-temperature (20-22° Celsius) room where they were exposed to a 12-hour light/dark cycle. Both groups of animals received food and either water or ethanol ad lib. Body weights were recorded on a weekly basis and fluid consumption was monitored in all groups for the duration of the study.
as §1, §2

[4] = Experiment 1 (5 Wks), diabetic rats, 4% ethanol
[5] = Experiment 1 (5 Wks), non-diabetic rats, 12% ethanol
[6] = Experiment 2 (10 Wks), diabetic rats, 4% ethanol
[7] = Experiment 2 (10 Wks), non-diabetic rats, 4% ethanol
[8] = Experiment 2 (10 Wks), non-diabetic rats, 12% ethanol
[9] = DE4 group (diabetic, 4% ethanol)
[10] = E12 group (non-diabetic, 12% ethanol)

IVSD [1, 4]: 0.120 ± 0.004 cm | LVD [1, 4]: 0.455 ± 0.027 cm | PWD [1, 4]: 0.143 ± 0.005 cm | IVSD [1, 5]: 0.130 ± 0.007 cm | LVD [1, 5]: 0.540 ± 0.027 cm | PWD [1, 5]: 0.150 ± 0.003 cm | IVSD [1, 6]: 0.105 ± 0.005 cm | LVD [1, 6]: 0.618 ± 0.032 cm | PWD [1, 6]: 0.125 ± 0.004^d cm | IVSD [1, 7]: 0.126 ± 0.01^a cm | LVD [1, 7]: 0.533 ± 0.033 cm | PWD [1, 7]: 0.155 ± 0.005^c cm | IVSD [1, 8]: 0.151 ± 0.004^b cm | LVD [1, 8]: 0.593 ± 0.018 cm | PWD [1, 8]: 0.159 ± 0.002^c cm | Rats with clear cells, indicative of glycogen deposition, in the kidney [2, 9]: 60% | Lymphocytic infiltrates in myocardial IVS on histologic examination ([2]; DE group (diabetic, 4% ethanol)): did not show infiltrates | Lymphocytic infiltrates in myocardial IVS on histologic examination ([2]; E4 group, all animals, graded none, few (1-4 cells per field), marked): marked lymphocytic infiltrates | Lymphocytic infiltrates in myocardial IVS on histologic examination ([2]; E12 group, all animals, graded none, few (1-4 cells per field), marked): marked lymphocytic infiltrates
Structure (SMILES): CCO [Ethanol, ethanol]
Body weights at the time of echocardiographic examination [3, 9]: 292±22 grams (g) | Body weights at the time of echocardiographic examination [3, 10]: 301±11 grams (g) | Body weights [3, 9]: 295 ± 16 g | Body weights ([3]; E4 group (non-diabetic, 4% ethanol)): 598 ± 29 g | Body weights [3, 10]: 581 ± 25 g

Source: patent US6415046B1, “Method and apparatus for the early detection of tissue pathology using wavelet transformation” (priority 1999, dated 2002)
